From patent EP0063149B1, “AQUEOUS FLUOROCARBIDE EMULSIONS INDEFINITELY STABLE AT A GIVEN TEMPERATURE, PROCESS FOR OBTAINING THEM AND APPLICATIONS” (Etablissement Public dit: CENTRE NATIONAL DE LA RECHERCHE …, priority 1980, dated 1982)

How the values were obtained:
sang humain [1] = assay: Thromboelastogram on whole blood; details: after recalcification, emulsion with ethanol, 10 minutes incubation
Experimental: (§1) • le sang humain était du sang de sujets normaux, prélevé le jour de l'essai, en flacon siliconé, et sur citrate à 9 %, dans le rapport du 1/20; • les produits (microémulsions ou témoin) mis en présence de ce sang, en proportions variables, ont permis, après 10 minutes d'incubation à la température du laboratoire, de pratiquer un thromboélastogramme sur sang total, afin de mettre en évidence une action éventuelle sur la coagulation globale selon le mode opératoire décrit par C. RABY dans Biologie des Hémorragies et des Thromboses 1 vol., Masson et Cie, Edit. Paris 1966, p. 187; • un temps de thrombine diluée a été effectué sur les plasmas des sangs ayant été en contact avec les microémulsions selon l'invention pendant 30 minutes à la température du laboratoire selon le mode opératoire décrit par C. RABY à la page 119 de l'ouvrage cité ci-dessus.
(§2) Cette émulsion, mise en présence de quatre échantillons de sang humain, à raison de 0,1 ml pour 0,9 ml de sang, a permis d'effectuer les essais définis ci-dessus.

sang humain [2] = assay: In vitro haemocompatibility: direct action on blood, overall observation
Experimental: On a recherché si les microémulsions selon l'invention avaient une action sur le sang humain en effectuant un thromboélastogramme, en mesurant le temps de thrombine diluée et en évaluant l'hémolyse.
as §1, §2

[3] = Cloud point of the surfactant; assay type: physicochemical
sang humain [4] = assay: Haemolysis evaluated on plasma after centrifugation; assay type: cell-based; details: plasma after centrifugation of blood at 2 000 g for 15 minutes
Experimental: as §1
L'hémolyse a été évaluée sur ces plasmas après centrifugation du sang à 2 000 g pendant 15 minutes.

[5] = Solubility and dispersion of the surfactant in physiological saline; assay type: physicochemical
Experimental: A des fins de comparaison, on a également utilisé les microémulsions ci-dessus d'une part en présence d'éthanol et d'autre part en l'absence d'éthanol.
En présence d'éthanol (VN), une solution limpide a été obtenue avec l'agent tensio-actif. Celle-ci, ajoutée dans les proportions de 0,2 ml à 1,8 ml d'eau physiologique, a donné, après agitation, une émulsion laiteuse, instable, s'éclaircissant en 15 minutes environ, tant à la température du laboratoire qu'à 37 °C.

sang humain [6] = assay: Diluted thrombin time on plasma of blood put in contact with the products; assay type: biochemical; details: summary
Experimental: as §1
Dans la détermination du temps de thrombine on a utilisé de l'eau physiologique comme témoin.

[7] = emulsion with ethanol, 0,1 ml for 0,9 ml blood
[8] = ethanol solution, 0,2 ml in 1,8 ml eau physiologique, laboratory temperature and 37 °C

OCCOCCOCCOCCOCCOCCOCC(F)(F)C(F)(F)C(F)(F)C(F)(F)C(F)(F)C(F)(F)C(F)(F)F [C7F15CH2(OC2H4)6OH]
amplitude « amx » (sang humain [1]): diminution | constante « r » (sang humain [1]): léger raccourcissement | « k (sang humain [1]): allongement | action directe sur du sang normal (sang humain [2]; [7]): Aucune action directe | fluidité (sang humain [2]; [7]): n'a pas été altérée | effet in vitro sur le sang humain, non coagulé (sang humain [2]; summary): sans effet | point de trouble [3]: < 0 °C | hémolyse (sang humain [4]): aucune trace | hémolyse (sang humain [4]; listed as agent tensio-actif seul): absence | soluble dans les solutés physiologiques [5]: n'est pas soluble | stabilité de l'émulsion [5, 8]: instable | temps d'éclaircissement de l'émulsion [5, 8]: ~15 min | activité semblable à la thrombine (sang humain [6]): ne produisent pas
